We go through three molecules from patent publication US6093702A, “Mixtures of dideoxy-nucleosides and hydroxycarbamide for inhibiting retroviral spread” (The United States of America as represented by the …, priority 1995, dated 2000).

Data set [1] can be described thus: Cytotoxicity in non-activated lymphocytes (PBLs) pretreated 24 h and then activated 48 h. Type of data set: cell-based. The conditions noted are these: human, HC 1 mM, 24 h pretreatment, then PHA and IL-2 for 48 h in presence of HC, read-out: PBLs dying due to the drug's toxicity. The source says:
Under such conditions, greater than 70% of the PBLs die due to the drug's toxicity.

Data set [2] is described as follows: Cell viability of preactivated PBMC by Trypan Blue exclusion. Type of data set: cell-based. The conditions noted are these: human, HC 0.15 mM, 2% Trypan Blue exclusion, read-out: cellular viability.
A further data set concerns HIV-1 strain IIIB. The data set can be described thus: microbe, parasite or virus in culture. The conditions noted are these: for p24 production: day 6. As to the method: (§1) The PBMC were purified from peripheral blood by discontinous Ficoll density gradient centrifugation. The cells were grown at a density of 1.3×10^6 cells/ml in RPMI 1640 medium supplemented with 10% FCS, 2 mM glutamine, penicillin 100 IU/ml and streptomycin 100 μg/ml, in the presence of PHA at a concentration of 1 μg/ml and recombinant IL-2 at 20 U/ml for 72 hours, then infected by HIV-1 strain IIIB at a multiplicity of 5000 TCID for 10^6 cells (241 pg/ml p24 antigen equivalent of virus). In FIG. 3, the first time point represent viral infection of the cells. After 2 hours of virus-cell contact, the cells were washed twice and placed in the culture medium containing IL-2 but without PHA in the presence of ddI at a concentration of 10 μM and of HC at a concentration of 0.15 mM. These cultures were maintained for 20 days, with partial renewal of the medium and of the two drugs twice a week maintaining the initial concentration. At day 6 and day 14 fresh uninfected donor PBMC were added (5×10^5 /ml) to replenish aged cultures (Nature, 361:1993, 650-654). The number of viable cells were quantified by a tetrazolium-based colorimetric 3-(4,5-dimethylthiazol-2-yl)-2,5-diphenyltetrazolium bromide (MTT) method (Pauwels, R. et al J. Virol. Methods, 20:309-321, (1988)), and activity is expressed as a percentage of the signal in the drug-free and virus-free control. Viral replication was quantified by measuring the HIV-1 p24 antigen by ELISA using the Dupont de Nemours kit.

A short description of another data set: in vitro. The conditions noted are these: human, cd4+ lymphocytes. As to the method:
(§2) Non-activated CD4^+ cells were infected, then treated for 7 days by HC, ddI or the combination of the two, then activated by PHA and IL-2 (PHA-IL-2).
(§3) The CD4^+ lymphocytes were purified from PBMC with immunomagnetic beads (Dynabeads* M450). These cells were infected with the HIV-1 virus strain IIIB at a multiplicity of infection of 5 000 tissue culture infectious dose (TCID) per 10^6 cells (241 pg/ml p24 antigen equivalent of virus). After 2 hours of virus-cell contact, the cells were washed twice and placed in the culture medium RPMI 1640 (supplemented with 10% fetal calf serum (FCS), 2 mM glutamine, penicillin 100 IU/ml and Streptomycin 100 μg/ml) at a density of 1.3×10^6 cells/ml. ddI was immediately added at a concentration of 5 μM and HC at concentrations of 0.05 mM and 0.015 mM. The drugs and culture medium were partially renewed (50%) on day 4, maintaining the same concentration of each. On day 7, in order to remove the drugs, the cells were washed twice and put back in culture in the presence of PHA at a concentration of 1 μg/ml and recombinant IL-2 at a concentration of 20 U/ml. […] The number of viable cells was quantified by a tetrazolium-based colorimetric 3-(4,5-dimethylthiazol-2-yl)-2,5-diphenyltetrazolium bromide (MTT) method (Pauwels, R. et al J. Virol. Methods, 20, 309-321, (1988)), and activity is expressed as a percentage of the signal in the drug-free and virus-free control. Viral replication was quantified by measuring the HIV-1 p24 antigen by ELISA using the Dupont de Nemours kit.
(§4) In FIG. 2, there is shown a study of the activity of the combination of AZT and HC on non-activated CD4^+ lymphocytes infected with the HIV virus. […] The number of viable cells was quantified by a tetrazolium-based colorimetric 3-(4,5-dimethylthiazol-2-yl)-2,5-diphenyltetrazolium bromide (MTT) method (Pauwels, R. et al J. Virol. Methds, 20,309-321, (1988)), and activity is expressed as a percentage of the signal in the drug-free and virus-free control. Viral replication was quantified by measuring the HIV-1 p24 antigen by ELISA using the Dupont de Nemours kit.

Another data set concerns HIV-1 virus strain IIIB. Description: microbe, parasite or virus in culture. The settings on record: for p24-HIV production in culture supernatant: day 15, infected control 86215; for effect on viral replication (in words): non-activated CD4+ lymphocytes, HC 0.05 or 0.15 mM, ddI or AZT 5 μM; for inhibition at 5 µM: read-out: inhibition of viral replication. Here is the method: as §2
The CD4^+ lymphocytes were purified from PBMC with immunomagnetic beads (Dynabeads* M450). These cells were infected with the HIV-1 virus strain IIIB at a multiplicity of infection of 5 000 tissue culture infectious dose (TCID) per 10^6 cells (241 pg/ml p24 antigen equivalent of virus). After 2 hours of virus-cell contact, the cells were washed twice and placed in the culture medium RPMI 1640 (supplemented with 10% fetal calf serum (FCS), 2 mM glutamine, penicillin 100 IU/ml and Streptomycin 100 μg/ml) at a density of 1.3×10^6 cells/ml. ddI was immediately added at a concentration of 5 μM and HC at concentrations of 0.05 mM and […]. The drugs and culture medium were partially renewed (50%) on day 4, maintaining the same concentration of each. On day 7, in order to remove the drugs, the cells were washed twice and put back in culture in the presence of PHA at a concentration of 1 μg/ml and recombinant IL-2 at a concentration of 20 U/ml. This culture was maintained until day 25, with partial renewal (50%) of the medium twice a week. The number of viable cells was quantified by a tetrazolium-based colorimetric 3-(4,5-dimethylthiazol-2-yl)-2,5-diphenyltetrazolium bromide (MTT) method (Pauwels, R. et al J. Virol. Methods, 20, 309-321, (1988)), and activity is expressed as a percentage of the signal in the drug-free and virus-free control. Viral replication was quantified by measuring the HIV-1 p24 antigen by ELISA using the Dupont de Nemours kit.
In FIG. 2, there is shown a study of the activity of the combination of AZT and HC on non-activated CD4^+ lymphocytes infected with the HIV virus. The CD4^+ lymphocytes were purified from PBMC with immunomagnetic beads (Dynabeads* M450). These cells were infected with the HIV-1 virus strain IIIB at a multiplicity of infection of 5 000 tissue culture infectious dose (TCID) per 10^6 cells (241 pg/ml p24 antigen equivalent of virus). After 2 hours of virus-cell contact, the cells were washed twice and placed in the culture medium RPMI 1640 (supplemented with 10% FCS, 2 mM glutamine, penicillin 100 IU/ml and streptomycin 100 μg/ml) at a density of 1.3×10^6 cells/ml. AZT was immediately added at a concentration of 5 μM and HC at a concentration of 0.05 mM and 0.15 mM. The drugs and culture medium were partially renewed (50%) on day 4, maintaining the same concentration of each. On day 7, in order to remove the drugs, the cells were washed twice and put back in culture in the presence of PHA at a concentration of 1 μg/ml and recombinant IL-2 at a concentration of 20 U/ml. This culture was maintained until day 25, with partial renewal (50%) of the medium twice a week. The number of viable cells was quantified by a tetrazolium-based colorimetric 3-(4,5-dimethylthiazol-2-yl)-2,5-diphenyltetrazolium bromide (MTT) method (Pauwels, R. et al J. Virol. Methds, 20,309-321, (1988)), and activity is expressed as a percentage of the signal in the drug-free and virus-free control. Viral replication was quantified by measuring the HIV-1 p24 antigen by ELISA using the Dupont de Nemours kit.

Data set [3] concerns PBMC preactivated with PHA and IL-2. The data set can be described thus: Inhibitory concentration 50% in preactivated PBMC by MTT test. The conditions noted are these: 72 h, read-out: IC50 (inhibitory concentration 50%), after 3 days. Format: cell-based. Here is the method:
as §1, with “At day 6 and day 14 fresh uninfected donor PBMC were added (5×10^5 /ml) to replenish aged cultures (Nature, 361:1993, 650-654).” left out

In data set [4] the test system is dNTP pools in PHA-stimulated PBLs. The settings on record: HC 1 mM, cited from earlier work.
Data set [5] has as its system non-activated CD4+ lymphocytes. Description: in vitro. The conditions noted are these: after PHA-IL-2 stimulation. As to the method: as §2, §3, §4
Setting [6] is: Human immunodeficiency virus 1, IIIB, PBMC, 144 h, read-out: inhibition of viral replication.
[7] abbreviates: Human immunodeficiency virus 1, IIIB, Lymphocyte.
Where [8] appears, read: single drug 5 μM, infected control 86215 pg p24/ml.

“Also recorded” adds a separate entry of the source. Read-outs that look alike come from different tables or passages of the source.

`NC(=O)NO` [HC, hydroxycarbamide]: the cytotoxicity at 72 h, 1000 µM in data set [1] was over 70%. Besides, the viability at 72 h, 150 µM in data set [2] was over 90%. The molecule further showed a p24 production with HIV-1 strain IIIB (HC alone 0.15 mM) of 12500 pg p24/ml. Besides, the inhibition at 150 µM with HIV-1 strain IIIB (setting [6]) was 82.6%. Further, in the data set “in vitro”, the cytotoxicity at 50 µM was over 50%. Also, the cytotoxicity at 150 µM in “in vitro” was over 50%. Moreover, the figures for the “p24-HIV production in culture supernatant” value in the data set on HIV-1 virus strain IIIB (HC 0.05 mM) and in the data set on HIV-1 virus strain IIIB (HC 0.15 mM) were 75460 pg of p24/ml and 82005 pg of p24/ml, respectively. In the data set on HIV-1 virus strain IIIB, the “effect on viral replication (in words)” value was “incapable of preventing the production of infectious virions”. The IC50 in data set [3] was determined as 150 µM. Besides, the “effect on dNTP levels and DNA synthesis rate (in words)” value in data set [4] (listed as hydroxyurea) was “decreases dNTP levels and the DNA synthesis rate to levels comparable to quiescent PBLs; also recorded: decreases the dNTP levels and the DNA synthesis rate to levels comparable to quiescent PBLs”; in data set [4], “partially reduces the various dNTP pools studied”.
Regarding `OC[C@@H]1CC[C@H](n2cnc3c(O)ncnc32)O1` [ddI, 2',3'-dideoxy-inosine], the inhibition at 10 µM in the data set on HIV-1 strain IIIB (setting [6]) turned out to be 97.1%. Besides, the p24 production in the data set on HIV-1 strain IIIB (ddI alone 10 μM) was 2071 pg p24/ml; with HIV-1 virus strain IIIB (ddI 5 μM alone, day 25), 101080 pg p24/ml; in the data set with HIV-1 virus strain IIIB (setting [8]), 766 pg p24/ml. The “proliferative cellular response / cytopathic effect (in words)” value in data set [5] is listed as “cytopathic effect was observed later”. Besides, the inhibition at 5 µM with HIV-1 virus strain IIIB (setting [7]) worked out at 99.1%. Besides, in the data set with HIV-1 virus strain IIIB, the “effect on viral replication (in words)” value was “reached substantially the same level of p24 production as the infected control; also recorded: only temporarily and partially inhibited”.
Turning to `Cc1cn([C@H]2C[C@H](N=[N+]=[N-])[C@@H](CO)O2)c(=O)[nH]c1=O` [AZT, 3'-azido-2',3'-dideoxythymidine], the log reduction at 5 µM in the data set on HIV-1 virus strain IIIB (Human immunodeficiency virus 1, IIIB, Lymphocyte, read-out: antiviral activity (log reduction)) is under 1. Further, the inhibition at 5 µM in the data set with HIV-1 virus strain IIIB (setting [7]) stood at 88.4%. For the same molecule, the “effect on viral replication (in words)” value in the data set on HIV-1 virus strain IIIB is “only slight antiviral activity; also recorded: only a slight effect on viral replication”. Besides, in the data set on HIV-1 virus strain IIIB (setting [8]), the p24 production is recorded as 10300 pg p24/ml.

Broadly, the viability is the share of living cells, or the viability signal relative to a control. As usually defined, the inhibition is how much of the control response was suppressed.
